Molecular target: AMPK
Assay: AMPK activation, enzyme-linked immunosorbent assay
Type: biochemical

| EC50 (compounds of Table 3 (Table 8)) [µM] | EC50 (compounds of Table 4 (Table 9)) [µM] | Compound |
| --- | --- | --- |
| 1 to 10 |  | CC(C)(C)OC(=O)N1CCC(Oc2ncc(C(=O)NC3CCN(Cc4ccc(C#N)cc4)CC3)s2)CC1 [3-26, tert-butyl 4-(5-(1-(4-cyanobenzyl)piperidin-4-ylcarbamoyl)thiazol-2-yloxy)piperidine-1-carboxylate] |
| < 0.1 |  | N#Cc1ccc(CN2CCC(NC(=O)c3ccc(C(=O)N4CCN(Cc5ccc(Cl)cc5)CC4)cc3)CC2)cc1 [3-28, 4-(4-(4-chlorobenzyl)piperazine-1-carbonyl)-N-(1-(4-cyanobenzyl)piperidin-4-yl)benzamide] |
| 10 to 100 |  | N#Cc1ccc(CN2CCC(NC(=O)c3ccc(C(=O)N4CCN(c5ccc(Cl)cc5)CC4)cc3)CC2)cc1 [3-29, 4-(4-(4-chlorophenyl)piperazine-1-carbonyl)-N-(1-(4-cyanobenzyl)piperidin-4-yl)benzamide] |
| < 0.1 |  | N#Cc1ccc(CN2CCC(NC(=O)c3ccc(C(=O)N4CCN(c5ccc(C(F)(F)F)cn5)CC4)cc3)CC2)cc1 [3-30, N-(1-(4-cyanobenzyl)piperidin-4-yl)-4-(4-(5-(trifluoromethyl)pyridin-2-yl)piperazine-1-carbonyl)benzamide] |
| < 0.1 |  | N#Cc1ccc(CN2CCC(NC(=O)c3ccc(C(=O)NC4CCN(Cc5ccc(C(F)(F)F)cc5)CC4)cc3)CC2)cc1 [3-31, N^1-(1-(4-cyanobenzyl)piperidin-4-yl)-N^4-(1-(4-(trifluoromethyl)benzyl)piperidin-4-yl)terephthalamide] |
| 10 to 100 |  | N#Cc1ccc(CN2CCC(NC(=O)c3ccc(C(=O)NC4CCN(c5ccccc5)CC4)cc3)CC2)cc1 [3-32, N^1-(1-(4-cyanobenzyl)piperidin-4-yl)-N^4-(1-phenylpiperidin-4-yl)terephthalamide] |
| 10 to 100 |  | N#Cc1ccc(CN2CCC(NC(=O)c3ccc(C(=O)NC4CCN(Cc5ccccc5)CC4)cc3)CC2)cc1 [3-33, N^1-(1-benzylpiperidin-4-yl)-N^4-(1-(4-cyanobenzyl)piperidin-4-yl)terephthalamide] |
| < 0.1 |  | N#Cc1ccc(CN2CCC(NC(=O)c3ccc4c(c3)CN(Cc3ccc(F)cc3)CC4)CC2)cc1 [3-34, N-(1-(4-cyanobenzyl)piperidin-4-yl)-2-(4-fluorobenzyl)-1,2,3,4-tetrahydroisoquinoline-7-carboxamide] |
| 1 to 10 |  | O=C(NC1CCN(Cc2cccnc2)CC1)c1ccc2c(c1)CN(Cc1ccc(F)cc1)CC2 [3-35, 2-(4-fluorobenzyl)-N-(1-(pyridin-3-ylmethyl)piperidin-4-yl)-1,2,3,4-tetrahydroisoquinoline-7-carboxamide] |
| 0.1 to 1 |  | O=C(NC1CCN(Cc2ccc(C(F)(F)F)cc2)CC1)c1ccc2c(c1)CN(Cc1ccc(F)cc1)CC2 [3-36, 2-(4-fluorobenzyl)-N-(1-(4-(trifluoromethyl)benzyl)piperidin-4-yl)-1,2,3,4-tetrahydroisoquinoline-7-carboxamide] |
| < 0.1 |  | N#Cc1ccc(CN2CCC(NC(=O)c3ccc4c(c3)CN(Cc3ccc(C#N)cc3)CC4)CC2)cc1 [3-37, 2-(4-cyanobenzyl)-N-(1-(4-cyanobenzyl)piperidin-4-yl)-1,2,3,4-tetrahydroisoquinoline-7-carboxamide] |
| < 0.1 |  | N#Cc1ccc(CN2CCc3ccc(C(=O)NC4CCN(Cc5cccnc5)CC4)cc3C2)cc1 [3-38, 2-(4-cyanobenzyl)-N-(1-(pyridin-3-ylmethyl)piperidin-4-yl)-1,2,3,4-tetrahydroisoquinoline-7-carboxamide] |
| 1 to 10 |  | N#Cc1ccc(CN2CCc3ccc(C(=O)NC4CCN(Cc5ccc(C(F)(F)F)cc5)CC4)cc3C2)cc1 [3-39, 2-(4-cyanobenzyl)-N-(1-(4-(trifluoromethyl)benzyl)piperidin-4-yl)-1,2,3,4-tetrahydroisoquinoline-7-carboxamide] |
|  | < 0.5 | N#Cc1ccc(CN2CCC(NC(=O)c3ccc(C(=O)N4CCN(Cc5ccc(C#N)cc5)CC4)cn3)CC2)cc1 [4-1, 5-(4-(4-cyanobenzyl)piperazine-1-carbonyl)-N-(1-(4-cyanobenzyl)piperidin-4-yl)picolinamide] |

— patent US9511058B2, “Methods for using carboxamide, sulfonamide and amine compounds” (Rigel Pharmaceuticals, Inc., priority 2010, dated 2016)
